Converted amounts (≈) assume the structure as drawn.
What was measured:
Test in all cases: MIC by microdilution
Assay type in all cases: cell-based
[1] = tested on: E. coli (Migula) Castellani and Chalmers (ATCC 25922); conditions: Escherichia coli, ATCC25922, read-out: MIC, EC
[2] = tested on: Salmonella enterica subsp. enterica serovar Typhimurium (ATCC 14028); conditions: ATCC14028|TYPHIMURIUM, read-out: MIC, ST
[3] = tested on: P. aeruginosa (Schroeter) Migula (ATCC 27853); conditions: Pseudomonas aeruginosa, ATCC27853, read-out: MIC, PA
[4] = tested on: S. aureus subsp. aureus Rosenbach (ATCC 25923); conditions: Staphylococcus aureus, ATCC25923, read-out: MIC, SA

MIC [1]: 8 µg/mL (≈ 16.8 µM) | MIC [2]: 2 µg/mL (≈ 4.19 µM) | MIC [3]: 4 µg/mL (≈ 8.38 µM) | MIC [4]: 4 µg/mL (≈ 8.38 µM)
SMILES: CNC(C)C1CCC(N)C(OC2C(N)CC(N)C(OC3OCC(C)(O)C(NC)C3O)C2O)O1 (stereo not shown) [gentamicin]
